In patent publication US10555959B2, “Glycolipids as treatment for disease” (La Jolla Pharmaceutical Company, priority 2009, dated 2020):

How the values were obtained:
[1] = system: SUR-1−/− Mice; settings: cited from earlier work
[2] = system: mouse cortical cells; test: Protection of cortical cells from apoptosis (hydrogen peroxide, MTT assay); type: cell-based; settings: approx. 0.1 μM; 50 μM hydrogen peroxide; cell death by MTT assay
Description: To induce apoptosis, mouse cortical cells were cultured and treated with 50 μM hydrogen peroxide for three hours prior to being treated with the ganglioside analogue.
The cells were also treated with the hydrogen peroxide during treatment with the ganglioside analogue and post-treatment for 48 h. Cell death was assayed using the MTT assay.

[3] = system: C57B1/6 mice treated with MPTP; test: Animal model of Parkinson's and atypical Parkinson's disease (MPTP); type: in vivo, mouse; settings: daily administration for three weeks
Description: C57B1/6 mice 7-8 weeks of age can be treated with MPTP (b.i.d., 20 mg/kg, s.c.). The mice also receive a daily administration of saline, compound of formula (1), (2), (3), (4), (5), (6), (7), (8), (9) or (10) (1, 10 and 30 mg/kg, o.s.) or (0.3. to 3 mg/kg, i.p. or s.c.) for three weeks starting 24 h after the last MPTP injection. The brains are removed and analyzed for striatum and substantia nigra pars compacta dopamine levels. The midbrain is fixed for TH immunohistochemistry and dopamine neuron cell counts.

[4] = system: melanoma; settings: cited from earlier work
[5] = system: KATP channels; settings: in vitro; by activation of the KATP channels; ceramide fatty acid of C16:0; cited from earlier work
[6] = system: human adippose tissue; settings: human adipose tissue, in vitro; cited from earlier work

Exendin-(9-39)
fasting blood glucose levels [1]: Significantly Raises

Gal3GalNAc4(Neu5Ac3)Gal4GlcCer [GM1]
protection of the cells from apoptosis [2]: approximately 20% | striatal dopamine levels [3]: increase striatal dopamine levels to approximately the same extent

Gal3GalNAc4(Neu5Ac8Neu5Ac3)Gal4GlcCer [GD1b]
growth of melanoma [4]: suppress

Neu5Ac3Gal3GalNAc4(Neu5Ac8Neu5Ac3)Gal4GlcCer [GT1b]
growth of melanoma [4]: suppress

Neu5Ac8Neu5Ac3Gal3GalNAc4(Neu5Ac8Neu5c3)Gal4GlcCer [GQ1b]
growth of melanoma [4]: suppress

sulfatide
glucose stimulation of insulin secretion [5]: inhibited | expression of adiponectin [6]: increased | levels of IL-6 [6]: decreasing | levels of IL-8 [6]: decreasing | levels of TNF-alpha [6]: decreasing
